Laboratory results from ChEMBL document CHEMBL1149820, “Synthesis, properties and photodynamic inactivation of Escherichia coli by novel cationic fullerene C60 derivatives” (2008).

Legend:
Format in all cases: functional
[1] = tested on: Escherichia coli; assay: Photoinactivation of Escherichia coli EC7 at 1 uM after 5 mins of irradiation
[2] = tested on: Escherichia coli; assay: Photoinactivation of Escherichia coli EC7 assessed as log reduction of cell survival at 5 uM after 30 mins of irradiation
[3] = tested on: Escherichia coli; assay: Photoinactivation of Escherichia coli EC7 at 1 uM after 20 mins of irradiation

Cc1ccc(-c2c3nc(c(-c4ccc([N+](C)(C)C)cc4)c4ccc([nH]4)c(-c4ccc([N+](C)(C)C)cc4)c4nc(c(-c5ccc(C)cc5)c5ccc2[nH]5)C=C4)C=C3)cc1.[I-].[I-]
Activity [1]: 70% | Survival [2]: 3.2

C[N+](C)(C)CCCOc1ccc(-c2c3nc(c(-c4ccc(C(F)(F)F)cc4)c4ccc([nH]4)c(-c4ccc(OCCC[N+](C)(C)C)cc4)c4nc(c(-c5ccc(C(F)(F)F)cc5)c5ccc2[nH]5)C=C4)C=C3)cc1.[I-].[I-]
Activity [3]: 87%
